In patent US20220024906A1, “COMPOUNDS AND COMPOSITIONS FOR TREATING CONDITIONS ASSOCIATED WITH STING ACTIVITY” (IFM Due, Inc., priority 2020, published 2022):
pEC50: −log10 of the molar value.

target: T1, hSTING (Homo sapiens, UniProt Q86WV6, G230A/H232R/R293Q/R71H); experiment: STING reporter assay (luciferase) in THP1-Dual KO-IFNAR2 cells stimulated with 2′3′cGAMP; format: cell-based; conditions: 15 μM 2′3′cGAMP transfected, 24 h, luciferase reporter activity
T1 construct: host or cells: THP1-Dual KO-IFNAR2 cells
Procedure: STING pathway activation by the compounds described herein was measured using THP1-Dual™ cells (KO-IFNAR2).
THP1-Dual™ KO-IFNAR2 Cells (obtained from invivogen) were maintained in RPMI, 10% FCS, 5 ml P/S, 2 mM L-glut, 10 mM Hepes, and 1 mM sodium pyruvate. Compounds were spotted in empty 384 well tissue culture plates (Greiner 781182) by Echo for a final concentration of 0.0017-100 μM. Cells were plated into the TC plates at 40 μL per well, 2×10E6 cells/mL. For activation with STING ligand, 2′3′cGAMP (MW 718.38, obtained from Invivogen), was prepared in Optimem media.
The following solutions were prepared for each 1×384 plate: • Solution A: 2 mL Optimem with one of the following stimuli: • 60 μL of 10 mM 2′3′cGAMP→150 μM stock • Solution B: 2 mL Optimem with 60 μL Lipofectamine 2000→Incubate 5 min at RT
2 mL of solution A and 2 ml Solution B was mixed and incubated for 20 min at room temperature (RT). 20 μL of transfection solution (A+B) was added on top of the plated cells, with a final 2′3′cGAMP concentration of 15 μM. The plates were then centrifuged immediately at 340 g for 1 minute, after which they were incubated at 37° C., 5% CO2, >98% humidity for 24 h. Luciferase reporter activity was then measured. EC50 values were calculated by using standard methods known in the art.
Luciferase reporter assay: 10 μL of supernatant from the assay was transferred to white 384-plate with flat bottom and squared wells. One pouch of QUANTI-Luc™ Plus was dissolved in 25 mL of water. 100 μL of QLC Stabilizer per 25 mL of QUANTI-Luc™ Plus solution was added. 50 μL of QUANTI-Luc™ Plus/QLC solution per well was then added. Luminescence was measured on a Platereader (e.g., Spectramax I3X (Molecular Devices GF3637001)).
Luciferase reporter activity was then measured. EC50 values were calculated by using standard methods known in the art.

T1 sequence (Q86WV6 whole entry R71H/G230A/H232R/R293Q): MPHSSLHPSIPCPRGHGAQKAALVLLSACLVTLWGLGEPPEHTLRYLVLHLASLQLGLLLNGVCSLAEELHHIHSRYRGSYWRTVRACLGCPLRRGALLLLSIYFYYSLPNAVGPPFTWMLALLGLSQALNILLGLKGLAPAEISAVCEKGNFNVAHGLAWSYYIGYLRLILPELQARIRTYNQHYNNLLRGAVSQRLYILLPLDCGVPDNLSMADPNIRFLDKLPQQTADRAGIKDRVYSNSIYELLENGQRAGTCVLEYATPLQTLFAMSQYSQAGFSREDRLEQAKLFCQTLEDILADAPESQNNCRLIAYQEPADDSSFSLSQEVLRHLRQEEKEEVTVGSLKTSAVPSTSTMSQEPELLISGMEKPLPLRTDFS

pEC50 | Structure (SMILES)
5.30 to 6.00 | O=C(Nc1c[nH]c2cc(F)c(F)cc12)C1CCN(S(=O)(=O)c2ccc(F)cc2)C1 (stereo not drawn) [Compound 111, N-(5,6-difluoro-1H-indol-3-yl)-1-((4-fluorophenyl)sulfonyl)pyrrolidine-3-carboxamide]
5.30 to 6.00 | O=C(Cn1cncn1)Nc1c[nH]c2ccc(-c3cnn(-c4ccc(C(F)(F)F)cc4)c3)cc12 [Compound 164, 2-(1H-1,2,4-triazol-1-yl)-N-(5-(1-(4-(trifluoromethyl)phenyl)-1H-pyrazol-4-yl)-1H-indol-3yl)acetamide]
5.30 to 6.00 | CCOc1ccc(CC(=O)Nc2c[nH]c3cc(F)c(F)cc23)cc1C(F)(F)F [Compound 103, N-(5,6-difluoro-1H-indol-3-yl)-2-(4-ethoxy-3-(trifluoromethyl)phenyl)acetamide]
5.30 to 6.00 | Cc1noc(C)c1CC(=O)Nc1c[nH]c2ccc(-c3cnn(-c4ccc(C(F)(F)F)cc4)c3)cc12 [Compound 160, 2-(3,5-dimethylisoxazol-4-yl)-N-(5-(1-(4-(trifluoromethyl)phenyl)-1H-pyrazol-4-yl)-1H-indol-3-yl)acetamide]
4.00 to 5.30 | O=C(Nc1c[nH]c2cc(F)c(F)cc12)[C@H]1CCN(C(=O)OCc2ccccc2)C1 [Compound 115, benzyl (S)-3-((5,6-difluoro-1H-indol-3-yl)carbamoyl)pyrrolidine-1-carboxylate]
5.30 to 6.00 | O=C(CCc1cncc(C(F)(F)F)c1)Nc1c[nH]c2cc(F)c(F)cc12 [Compound 119, N-(5,6-difluoro-1H-indol-3-yl)-3-(5-(trifluoromethyl)pyridin-3-yl)propanamide]
6.00 to 6.70 | O=C(CCn1cncn1)Nc1c[nH]c2ccc(-c3cnn(-c4ccc(C(F)(F)F)cc4)c3)cc12 [Compound 159, 3-(1H-1,2,4-triazol-1-yl)-N-(5-(1-(4-(trifluoromethyl)phenyl)-1H-pyrazol-4-yl)-1H-indol-3-yl)propanamide]
6.00 to 6.70 | O=C(CC1CC(F)(F)C1)Nc1c[nH]c2ccc(-c3cnn(-c4ccc(C(F)(F)F)cc4)c3)cc12 [Compound 157, 2-(3,3-difluorocyclobutyl)-N-(5-(1-(4-(trifluoromethyl)phenyl)-1H-pyrazol-4-yl)-1H-indol-3-yl)acetamide]
6.00 to 6.70 | Cc1ccc(OCCC(=O)Nc2c[nH]c3cc(F)c(F)cc23)cc1 [Compound 120, N-(5,6-difluoro-1H-indol-3-yl)-3-(p-tolyloxy)propanamide]
4.00 to 5.30 | COc1ccc(CC(C)(C)C(=O)Nc2c[nH]c3cc(F)c(F)cc23)cc1 [Compound 133, N-(5,6-difluoro-1H-indol-3-yl)-3-(4-methoxyphenyl)-2,2-dimethylpropanamide]
5.30 to 6.00 | O=C(Nc1c[nH]c2ccc(-c3cnn(-c4ccc(C(F)(F)F)cc4)c3)cc12)[C@@H](O)C1CCCCC1 [Compound 152, (S)-2-cyclohexyl-2-hydroxy-N-(5-(1-(4-(trifluoromethyl)phenyl)-1H-pyrazol-4-yl)-1H-indol-3-yl)acetamide]
6.00 to 6.70 | O=C(CCc1ncccn1)Nc1c[nH]c2ccc(-c3cnn(-c4ccc(C(F)(F)F)cc4)c3)cc12 [Compound 147, 3-(pyrimidin-2-yl)-N-(5-(1-(4-(trifluoromethyl)phenyl)-1H-pyrazol-4-yl)-1H-indol-3-yl)propanamide]
6.00 to 6.70 | O=C(CCn1ccnc1)Nc1c[nH]c2ccc(-c3cnn(-c4ccc(C(F)(F)F)cc4)c3)cc12 [Compound 142, 3-(1H-imidazol-1-yl)-N-(5-(1-(4-(trifluoromethyl)phenyl)-1H-pyrazol-4-yl)-1H-indol-3-yl)propanamide]
5.30 to 6.00 | O=C(CN1CCCC1=O)Nc1c[nH]c2ccc(-c3cnn(-c4ccc(C(F)(F)F)cc4)c3)cc12 [Compound 166, 2-(2-oxopyrrolidin-1-yl)-N-(5-(1-(4-(trifluoromethyl)phenyl)-1H-pyrazol-4-yl)-1H-indol-3-yl)acetamide]
5.30 to 6.00 | O=C(Nc1c[nH]c2cc(F)c(F)cc12)C1CN(Cc2ccccc2)CCO1 (stereo not drawn) [Compound 118, 4-benzyl-N-(5,6-difluoro-1H-indol-3-yl)morpholine-2-carboxamide]
5.30 to 6.00 | Cc1nc(CC(=O)Nc2c[nH]c3ccc(-c4cnn(-c5ccc(C(F)(F)F)cc5)c4)cc23)n[nH]1 [Compound 150, 2-(5-methyl-1H-1,2,4-triazol-3-yl)-N-(5-(1-(4-(trifluoromethyl)phenyl)-1H-pyrazol-4-yl)-1H-indol-3-yl)acetamide]
5.30 to 6.00 | CC(Oc1ccc(OC(F)(F)F)cc1)C(=O)Nc1c[nH]c2cc(F)c(F)cc12 (stereo not drawn) [Compound 130, N-(5,6-difluoro-1H-indol-3-yl)-2-(4-(trifluoromethoxy)phenoxy)propanamide]
6.00 to 6.70 | Cn1cc(CC(=O)Nc2c[nH]c3ccc(-c4cnn(-c5ccc(C(F)(F)F)cc5)c4)cc23)cn1 [Compound 146, 2-(1-methyl-1H-pyrazol-4-yl)-N-(5-(1-(4-(trifluoromethyl)phenyl)-1H-pyrazol-4-yl)-1H-indol-3-yl)acetamide]
5.30 to 6.00 | NC1(CC(=O)Nc2c[nH]c3ccc(-c4cnn(-c5ccc(C(F)(F)F)cc5)c4)cc23)CCCCC1 [Compound 151, 2-(1-aminocyclohexyl)-N-(5-(1-(4-(trifluoromethyl)phenyl)-1H-pyrazol-4-yl)-1H-indol-3-yl)acetamide]
6.00 to 6.70 | O=C(CS(=O)(=O)C1CC1)Nc1c[nH]c2ccc(-c3cnn(-c4ccc(C(F)(F)F)cc4)c3)cc12 [Compound 158, 2-(cyclopropylsulfonyl)-N-(5-(1-(4-(trifluoromethyl)phenyl)-1H-pyrazol-4-yl)-1H-indol-3-yl)acetamide]
4.00 to 5.30 | C[C@H](NC1CCCCC1)C(=O)Nc1c[nH]c2cc(F)c(F)cc12 [Compound 113, (S)-2-(cyclohexylamino)-N-(5,6-difluoro-1H-indol-3-yl)propanamide]
6.00 to 6.70 | Cc1cc(CC(=O)Nc2c[nH]c3ccc(-c4cnn(-c5ccc(C(F)(F)F)cc5)c4)cc23)on1 [Compound 144, 2-(3-methylisoxazol-5-yl)-N-(5-(1-(4-(trifluoromethyl)phenyl)-1H-pyrazol-4-yl)-1H-indol-3-yl)acetamide]
6.00 to 6.70 | O=C(CCc1ccc(OC(F)(F)F)cc1)Nc1c[nH]c2cc(F)c(F)cc12 [Compound 104, N-(5,6-difluoro-1H-indol-3-yl)-3-(4-(trifluoromethoxy)phenyl)propanamide]
6.00 to 6.70 | O=C(Cc1cnc(N2CCC(F)(F)CC2)c(Cl)c1)Nc1c[nH]c2ccc(Br)cc12 [Compound 101, N-(5-bromo-1H-indol-3-yl)-2-(5-chloro-6-(4,4-difluoropiperidin-1-yl)pyridin-3-yl)acetamide]
6.00 to 6.70 | Cn1ccc(CC(=O)Nc2c[nH]c3ccc(-c4cnn(-c5ccc(C(F)(F)F)cc5)c4)cc23)n1 [Compound 168, 2-(1-methyl-1H-pyrazol-3-yl)-N-(5-(1-(4-(trifluoromethyl)phenyl)-1H-pyrazol-4-yl)-1H-indol-3-yl)acetamide]
5.30 to 6.00 | C/C(=C\c1ccccn1)C(=O)Nc1c[nH]c2cc(F)c(F)cc12 [Compound 109, (E)-N-(5,6-difluoro-1H-indol-3-yl)-2-methyl-3-(pyridin-2-yl)acrylamide]
6.00 to 6.70 | O=C(CN1CCOC1=O)Nc1c[nH]c2ccc(-c3cnn(-c4ccc(C(F)(F)F)cc4)c3)cc12 [Compound 161, 2-(2-oxooxazolidin-3-yl)-N-(5-(1-(4-(trifluoromethyl)phenyl)-1H-pyrazol-4-yl)-1H-indol-3-yl)acetamide]
